Measurements taken from publication PMC11289891, “Selection and characterization of a peptide-based complement modulator targeting C1 of the innate immune system” (RSC Chemical Biology, 2024).
Where two headings read alike, the source gives them in different places. Positions of bridges follow the written chain, without caps; N, C: chain ends. Non-standard residues stand in square brackets, D forms with d. Residues, ends and D or L forms follow the SMILES beside them. *: point of attachment. Biotin = O=C1N[C@H]2[C@H](CS[C@H]2CCCCC(=O)*)N1; Lys(N3) = [N-]=[N+]=NCCCC[C@H](N)C(=O)O

Key:
C1q = target: T1, C1q (Homo sapiens, UniProt P02745+P02746+P02747); test: ELISA for complement activation: C1q recruitment from human serum by immobilised peptide; type: binding; details: for EC50: 1% human serum in RPMI, four-parameter fit
T1 construct: tissue Complement Technology, Inc; host or cells: normal human serum (pooled), 1% in RPMI medium
Experimental: Maxisorb Nunc Immunoplates (Thermofisher Scientific, Massachusetts, USA) were coated with streptavidin (Thermofisher Scientific) at 10 μg mL^−1 in 0.1 M Na2CO3, 0.1 M NaHCO3 (coating buffer), pH 9.6 at 50 μL per well and allowed to incubate either at room temperature overnight, or 37 °C for 1 hour. Plates were washed with PBS with 0.05% tween-20 three times. For each following step, samples were incubated at 37 °C for 1 hour and subsequently washed with the PBS-T solution, we denote this as incubation and wash in the latter parts of the text. After streptavidin binding, wells were blocked with 100 μL of 0.1 M spermidine (Thermofisher Scientific) in distilled water incubated and washed. Then peptides were incubated in 50 μL PBS (as with all the following steps) with 0.05% Tween-20 (PBS-T) to create a peptide presenting surface and incubated and washed. In all activation assays, peptides are modified with a biotin to achieve binding to streptavidin. Note that in certain instances the peptides are initially modified with an azide. In such conditions a biotin-PEG4-DBCO (Jena Bioscience GmbH, Germany) was co-incubated with the peptides at 25 mol% excess of biotin linker to create a biotin modified peptide. This conjugation reaction took place in the plate. Hereafter the wells were incubated with 1% normal human serum (NHS) (Complement Technology, Inc., Texas, USA) in RPMI medium (Roswell Park Memorial Institute 1640 medium), then incubated and washed. Following these steps, complement components C1q or C5b-9 were detected. Primary Rabbit anti-C1q or Mouse anti C5b-9 (Dako, Denmark) was added to PBS, 0.05% Tween-20, 0.1% BSA (PBS-BT) in 1 : 2000 and 1 : 333 dilution, respectively, then incubated and washed. Next, goat anti-rabbit and anti-mouse antibodies (Dako, Denmark) modified with horseradish peroxidase (HRP) were diluted 1 : 5000 in PBS-T and added to the plates, then incubated and washed. To detect the HRP on the secondary antibody 2.5 mg mL^−1 ABTS (2′-azino-bis(3-ethylbenzothiazoline-6-sulfonic acid)) was added in citric acid buffer (0.15 M, pH 4.2) (ABTS buffer) containing 0.15 (v/v%) H2O2 was used and samples were incubated at room temperature for 30 minutes. Absorption measurements at 415 nm were performed on a CLARIOstar microplate reader (BMG Labtech, Offenburg, Germany).

[1] = system: C1q binding to pooled IgG; test: Competition ELISA on pooled human IgG, C1q detected; details: peptide incubated with 1% human serum, pooled IgG-coated plate, two technical replicates
Experimental: (§1) Materials, including buffers and blocking agent, were the same as for the activation assay, unless stated otherwise. Incubation and wash steps between added new components was kept identical to the section “Enzyme-linked immunosorbent assay (ELISA) for complement activation” above. To determine the competition with pooled human IgG (Sigma-Aldrich, USA), Maxisorb plates were coated with 10 μg mL^−1 of IgG pooled from human serum, incubated, washed and blocked with spermidine. Peptides were incubated with 1% normal human serum (pooled, Complement Technology) for at least 30 minutes before adding to the IgG coated plates. DMSO controls and no serum controls were added. Human serum with and without peptides was added to the plates and subsequent complement inhibition was determined by detecting the presence of C1q or C5b-9. Data shown in the graphs is normalized to the maximum signal of the DMSO control and the minimal signal of the no serum control. Absorption measurements at 415 were performed on a CLARIOstar microplate reader (BMG Labtech, Offenburg, Germany).

[2] = system: C5b-9 deposition by pooled IgG; test: Competition ELISA on pooled human IgG, C5b-9 detected; type: biochemical
Experimental: as §1

T1 sequence (P02745 23-245): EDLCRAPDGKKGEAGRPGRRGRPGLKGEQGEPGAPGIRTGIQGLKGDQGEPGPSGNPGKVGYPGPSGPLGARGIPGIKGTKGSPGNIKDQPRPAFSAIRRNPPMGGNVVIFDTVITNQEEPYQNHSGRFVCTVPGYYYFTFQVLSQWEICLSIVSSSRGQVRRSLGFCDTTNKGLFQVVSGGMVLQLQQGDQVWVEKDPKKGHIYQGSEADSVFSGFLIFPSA
T1 sequence (P02746 28-253): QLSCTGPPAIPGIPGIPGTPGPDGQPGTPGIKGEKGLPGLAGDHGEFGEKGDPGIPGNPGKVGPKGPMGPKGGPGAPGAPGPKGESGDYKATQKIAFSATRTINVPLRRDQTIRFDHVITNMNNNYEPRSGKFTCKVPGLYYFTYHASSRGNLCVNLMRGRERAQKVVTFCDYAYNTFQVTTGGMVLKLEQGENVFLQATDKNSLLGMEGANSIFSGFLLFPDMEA
T1 sequence (P02747 29-245): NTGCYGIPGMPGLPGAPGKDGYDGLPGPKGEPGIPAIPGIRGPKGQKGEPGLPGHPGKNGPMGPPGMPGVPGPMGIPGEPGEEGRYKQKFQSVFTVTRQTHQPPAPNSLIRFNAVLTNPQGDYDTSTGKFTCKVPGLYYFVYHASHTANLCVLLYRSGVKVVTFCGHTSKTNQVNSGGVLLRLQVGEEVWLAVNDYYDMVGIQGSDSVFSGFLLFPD
T1 sequence (P00736 18-705 partner): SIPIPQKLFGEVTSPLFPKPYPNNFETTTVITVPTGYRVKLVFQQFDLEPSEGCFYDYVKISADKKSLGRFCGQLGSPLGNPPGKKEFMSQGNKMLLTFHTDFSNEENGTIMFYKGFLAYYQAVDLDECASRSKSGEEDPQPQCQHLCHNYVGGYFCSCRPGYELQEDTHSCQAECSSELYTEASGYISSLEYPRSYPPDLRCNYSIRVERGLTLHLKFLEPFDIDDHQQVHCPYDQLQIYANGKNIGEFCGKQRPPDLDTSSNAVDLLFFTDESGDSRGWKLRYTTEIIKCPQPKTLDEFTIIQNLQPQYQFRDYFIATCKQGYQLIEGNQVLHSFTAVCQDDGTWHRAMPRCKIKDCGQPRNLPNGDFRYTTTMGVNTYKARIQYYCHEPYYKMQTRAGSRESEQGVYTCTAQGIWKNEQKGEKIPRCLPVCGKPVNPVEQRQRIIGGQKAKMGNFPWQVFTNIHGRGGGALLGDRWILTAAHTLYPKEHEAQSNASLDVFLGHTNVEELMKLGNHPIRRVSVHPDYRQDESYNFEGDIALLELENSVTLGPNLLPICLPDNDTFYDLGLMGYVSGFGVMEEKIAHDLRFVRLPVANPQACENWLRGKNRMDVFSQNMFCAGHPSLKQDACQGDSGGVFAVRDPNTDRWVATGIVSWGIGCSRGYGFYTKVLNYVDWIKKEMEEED
T1 sequence (P09871 16-688 partner): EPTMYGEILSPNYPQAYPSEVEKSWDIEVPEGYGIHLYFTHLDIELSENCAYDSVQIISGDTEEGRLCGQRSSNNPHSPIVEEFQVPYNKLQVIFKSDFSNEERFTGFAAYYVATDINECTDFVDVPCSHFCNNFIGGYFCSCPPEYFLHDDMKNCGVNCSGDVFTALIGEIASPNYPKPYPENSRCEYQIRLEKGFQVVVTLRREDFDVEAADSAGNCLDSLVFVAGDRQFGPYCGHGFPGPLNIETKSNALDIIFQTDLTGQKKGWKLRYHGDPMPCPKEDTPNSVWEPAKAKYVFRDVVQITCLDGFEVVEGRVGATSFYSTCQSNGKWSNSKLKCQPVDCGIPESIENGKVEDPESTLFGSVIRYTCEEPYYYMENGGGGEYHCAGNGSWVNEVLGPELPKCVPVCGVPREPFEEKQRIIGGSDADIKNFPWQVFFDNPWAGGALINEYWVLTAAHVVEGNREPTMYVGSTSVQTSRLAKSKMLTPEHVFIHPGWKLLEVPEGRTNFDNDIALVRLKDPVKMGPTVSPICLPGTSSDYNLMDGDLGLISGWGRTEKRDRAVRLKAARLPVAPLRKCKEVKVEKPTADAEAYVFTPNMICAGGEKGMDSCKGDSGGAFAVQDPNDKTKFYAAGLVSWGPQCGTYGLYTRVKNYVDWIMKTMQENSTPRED

**Q.** Which results are given for `CC[C@H](C)[C@@H]1NC(=O)[C@H](Cc2ccccc2)NC(=O)[C@H](CCC(N)=O)NC(=O)[C@H](CC(C)C)NC(=O)[C@H]([C@@H](C)O)NC(=O)[C@H](Cc2ccccc2)NC(=O)[C@@H]2CCCN2C(=O)[C@H](CC(=O)O)NC(=O)[C@@H]2CCCN2C(=O)[C@H](Cc2ccc(O)cc2)NC(=O)[C@H](Cc2ccccc2)NC(=O)[C@H]([C@@H](C)O)NC(=O)[C@H](C(C)C)NC(=O)[C@H]([C@@H](C)O)NC(=O)[C@H](Cc2ccc(O)cc2)NC(=O)CSC[C@@H](C(=O)NCC(=O)N[C@@H](CO)C(=O)N[C@@H](CCCCN=[N+]=[N-])C(=O)NCC(=O)O)NC(=O)[C@H](C)NC1=O` [cL3-Az] ({CH2CO}-YTVTFYPDPFTLQFIACGS[Lys(N3)]G-OH; thioether N-17)?
**A.** EC50 (C1q; cL3-Az conjugated to biotin-DBCO linker on streptavidin plate, 1 hour 37 °C, single technical replicate, CI 5.2-7.4, R2 0.99, read-out: EC50 of C1q recruitment, Fig. S4): 6.2 µM; EC50 of C1 recruitment compared with the biotinylated variant (C1q; cL3-Az via biotin-DBCO linker on streptavidin plate, 1% human serum): comparable to the biotinylated variant

**Q.** How did the EC50 (C1q; cL3-Bt titrated on streptavidin plate, technical duplicate on one plate (data of Fig. 3a), CI ND, R2 0.99, read-out: EC50 of C1q recruitment, Fig. S2 graph on the right) turn out when `CC[C@H](C)[C@@H]1NC(=O)[C@H](Cc2ccccc2)NC(=O)[C@H](CCC(N)=O)NC(=O)[C@H](CC(C)C)NC(=O)[C@H]([C@@H](C)O)NC(=O)[C@H](Cc2ccccc2)NC(=O)[C@@H]2CCCN2C(=O)[C@H](CC(=O)O)NC(=O)[C@@H]2CCCN2C(=O)[C@H](Cc2ccc(O)cc2)NC(=O)[C@H](Cc2ccccc2)NC(=O)[C@H]([C@@H](C)O)NC(=O)[C@H](C(C)C)NC(=O)[C@H]([C@@H](C)O)NC(=O)[C@H](Cc2ccc(O)cc2)NC(=O)CSC[C@@H](C(=O)NCC(=O)N[C@@H](CO)C(=O)N[C@@H](CCCCNC(=O)CCCC[C@@H]2SC[C@@H]3NC(=O)N[C@@H]32)C(=O)NCC(=O)O)NC(=O)[C@H](C)NC1=O` [cL3-Bt] ({CH2CO}-YTVTFYPDPFTLQFIACGSK(Biotin)G-OH; thioether N-17) was run?
**A.** 6.2 µM

**Q.** What about the EC50 (C1q; cL3-Bt titrated on streptavidin plate, technical duplicate on one plate, CI 7.4-9.1, R2 0.99, read-out: EC50 of C1q recruitment, Fig. S2 graph in the middle) of the same compound?
**A.** 8.2 µM

**Q.** What about the EC50 (C1q; cL3-Bt titrated on streptavidin plate, technical duplicate on one plate, CI ND, R2 0.98, read-out: EC50 of C1q recruitment, Fig. S2 graph on the left) of the same compound?
**A.** 2.68 µM

**Q.** How did the “Inhibition of C1q binding to pooled IgG” value [1] turn out when `CC[C@H](C)[C@@H]1NC(=O)[C@H](Cc2ccccc2)NC(=O)[C@H](CCC(N)=O)NC(=O)[C@H](CC(C)C)NC(=O)[C@H]([C@@H](C)O)NC(=O)[C@H](Cc2ccccc2)NC(=O)[C@@H]2CCCN2C(=O)[C@H](CC(=O)O)NC(=O)[C@@H]2CCCN2C(=O)[C@H](Cc2ccc(O)cc2)NC(=O)[C@H](Cc2ccccc2)NC(=O)[C@H]([C@@H](C)O)NC(=O)[C@H](C(C)C)NC(=O)[C@H]([C@@H](C)O)NC(=O)[C@@H](Cc2ccc(O)cc2)NC(=O)CSC[C@@H](C(=O)NCC(=O)N[C@@H](CO)C(=O)N[C@@H](CCCCNC(=O)CCCC[C@@H]2SC[C@@H]3NC(=O)N[C@@H]32)C(=O)NCC(=O)O)NC(=O)[C@H](C)NC1=O` [inv-cL3] ({CH2CO}-[dY]TVTFYPDPFTLQFIACGSK(Biotin)G-OH; thioether N-17; C-terminus assumed) was run?
**A.** minor inhibition of C1q binding to pooled IgG at high concentrations

**Q.** And the IC50 ([2]; data of Fig. 6b, four-parameter fit, CI 1.01-2.13, R2 0.94, read-out: IC50, competition with IgG, Fig. S18 fit)?
**A.** 1500 nM

**Q.** And the “Inhibition of C5b-9 deposition by pooled IgG (qualitative, rank)” value ([2]; peptide incubated with 1% human serum, pooled IgG-coated plate, two technical replicates)?
**A.** significantly worse than full-length cL3
